Experimental data published in PubChem BioAssay (NCI).
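Results reflect a 48-hour exposure of cells in 96-well plates to compound at five concentrations. TGI denotes the concentration required for complete inhibition of growth.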

Tests used:
Assay in all cases: NCI tumour cell line growth inhibition, 48 h
CAKI-1 renal = test system: CAKI-1 renal
COLO 205 colon = test system: COLO 205 colon
HT29 colon = test system: HT29 colon
A549 NSCLC = test system: A549 NSCLC
UACC-257 melanoma = test system: UACC-257 melanoma
HCT-15 colon = test system: HCT-15 colon
K-562 leukemia = test system: K-562 leukemia
PC-3 prostate = test system: PC-3 prostate
SK-MEL-5 melanoma = test system: SK-MEL-5 melanoma
HCT-116 colon = test system: HCT-116 colon

## CCN(CC)c1ccc(/C=c2\nc(-c3ccccc3)n3c2nc2ccccc23)cc1
CAKI-1 renal
  TGI: 9.72 µM
COLO 205 colon
  TGI: 20.1 µM
HT29 colon
  TGI: 5.98 µM
A549 NSCLC
  TGI: > 100 µM
UACC-257 melanoma
  TGI: 99.3 µM
HCT-15 colon
  TGI: > 100 µM
K-562 leukemia
  TGI: > 100 µM
PC-3 prostate
  TGI: 8.7 µM
SK-MEL-5 melanoma
  TGI: 21.9 µM
HCT-116 colon
  TGI: 18.8 µM

## CCN(CC)c1ccc2c(c1)Oc1ccc(N(C(C)=O)c3ccccc3)cc1C21OC(=O)c2ccccc21 (stereo not given)
CAKI-1 renal
  TGI: > 100 µM
COLO 205 colon
  TGI: > 100 µM
HT29 colon
  TGI: > 100 µM
A549 NSCLC
  TGI: > 100 µM
UACC-257 melanoma
  TGI: > 100 µM
HCT-15 colon
  TGI: > 100 µM
K-562 leukemia
  TGI: > 100 µM
PC-3 prostate
  TGI: > 100 µM
SK-MEL-5 melanoma
  TGI: > 100 µM
HCT-116 colon
  TGI: > 100 µM

## CC1(CCc2ccccc2)CC1(Br)Br (stereo not given)
CAKI-1 renal
  TGI: > 100 µM
COLO 205 colon
  TGI: 51.7 µM
HT29 colon
  TGI: > 100 µM
A549 NSCLC
  TGI: > 100 µM
UACC-257 melanoma
  TGI: 83.6 µM
HCT-15 colon
  TGI: > 100 µM
K-562 leukemia
  TGI: 38.2 µM
PC-3 prostate
  TGI: > 100 µM
SK-MEL-5 melanoma
  TGI: 30.1 µM
HCT-116 colon
  TGI: > 100 µM

## NNC(=O)Cc1cccnc1
CAKI-1 renal
  TGI: > 100 µM
COLO 205 colon
  TGI: > 100 µM
HT29 colon
  TGI: > 100 µM
A549 NSCLC
  TGI: > 100 µM
UACC-257 melanoma
  TGI: > 100 µM
HCT-15 colon
  TGI: > 100 µM
K-562 leukemia
  TGI: > 100 µM
PC-3 prostate
  TGI: > 100 µM
SK-MEL-5 melanoma
  TGI: > 100 µM
HCT-116 colon
  TGI: > 100 µM

## CC(/C=N/N(C)C1=NCCCCN1)=N/N(C)C1=NCCCCN1
CAKI-1 renal
  TGI: > 100 µM
COLO 205 colon
  TGI: > 100 µM
HT29 colon
  TGI: > 100 µM
A549 NSCLC
  TGI: > 100 µM
UACC-257 melanoma
  TGI: > 100 µM
HCT-15 colon
  TGI: > 100 µM
K-562 leukemia
  TGI: > 100 µM
PC-3 prostate
  TGI: > 100 µM
SK-MEL-5 melanoma
  TGI: > 100 µM
HCT-116 colon
  TGI: > 100 µM

## O=C1c2n[nH]nc2C(=O)c2n[nH]nc21
CAKI-1 renal
  TGI: > 100 µM
COLO 205 colon
  TGI: > 100 µM
HT29 colon
  TGI: > 100 µM
A549 NSCLC
  TGI: > 100 µM
UACC-257 melanoma
  TGI: > 100 µM
HCT-15 colon
  TGI: > 100 µM
K-562 leukemia
  TGI: > 100 µM
PC-3 prostate
  TGI: > 100 µM
SK-MEL-5 melanoma
  TGI: > 100 µM
HCT-116 colon
  TGI: > 100 µM

## c1ccc2c(c1)nc1n2CCNC1
CAKI-1 renal
  TGI: > 100 µM
COLO 205 colon
  TGI: > 100 µM
HT29 colon
  TGI: > 100 µM
A549 NSCLC
  TGI: > 100 µM
UACC-257 melanoma
  TGI: > 100 µM
HCT-15 colon
  TGI: > 100 µM
K-562 leukemia
  TGI: > 100 µM
PC-3 prostate
  TGI: > 100 µM
SK-MEL-5 melanoma
  TGI: > 100 µM
HCT-116 colon
  TGI: > 100 µM

## O=C(O)CS(=O)c1ccc2c3c(cccc13)C(=O)c1ccccc1-2 (stereo not given)
CAKI-1 renal
  TGI: > 100 µM
COLO 205 colon
  TGI: > 100 µM
HT29 colon
  TGI: > 100 µM
A549 NSCLC
  TGI: > 100 µM
UACC-257 melanoma
  TGI: > 100 µM
HCT-15 colon
  TGI: > 100 µM
K-562 leukemia
  TGI: > 100 µM
PC-3 prostate
  TGI: > 100 µM
SK-MEL-5 melanoma
  TGI: > 100 µM
HCT-116 colon
  TGI: > 100 µM

## O=C1OC(C2Cc3ccccc3C2=O)c2ccccc21 (stereo not given)
CAKI-1 renal
  TGI: > 100 µM
COLO 205 colon
  TGI: > 100 µM
HT29 colon
  TGI: 60.5 µM
A549 NSCLC
  TGI: > 100 µM
UACC-257 melanoma
  TGI: > 100 µM
HCT-15 colon
  TGI: > 100 µM
K-562 leukemia
  TGI: > 100 µM
PC-3 prostate
  TGI: > 100 µM
SK-MEL-5 melanoma
  TGI: > 100 µM
HCT-116 colon
  TGI: > 100 µM

## COc1ccc(C2c3cc4c(cc3OC(NNC(N)=O)C2C)OCO4)cc1 (stereo not given)
CAKI-1 renal
  TGI: > 100 µM
COLO 205 colon
  TGI: 15 µM
HT29 colon
  TGI: 17.2 µM
A549 NSCLC
  TGI: > 100 µM
UACC-257 melanoma
  TGI: > 100 µM
HCT-15 colon
  TGI: 36.3 µM
K-562 leukemia
  TGI: > 34.9 µM
PC-3 prostate
  TGI: 53.8 µM
SK-MEL-5 melanoma
  TGI: > 63.2 µM
HCT-116 colon
  TGI: 21.5 µM

## Cc1ccc(C2(N3CCCC3)OC(C)(C)c3cccc4cccc2c34)cc1 (stereo not given)
CAKI-1 renal
  TGI: 36.5 µM
COLO 205 colon
  TGI: 30.3 µM
HT29 colon
  TGI: 26.2 µM
A549 NSCLC
  TGI: 24.6 µM
UACC-257 melanoma
  TGI: 31 µM
HCT-15 colon
  TGI: 32.2 µM
K-562 leukemia
  TGI: > 100 µM
PC-3 prostate
  TGI: 36.2 µM
SK-MEL-5 melanoma
  TGI: 28.2 µM
HCT-116 colon
  TGI: 38.4 µM

## N#Cc1ccc(/C=N/NC(=O)CSCC(=O)N/N=C/c2ccc(C#N)cc2)cc1
CAKI-1 renal
  TGI: > 100 µM
COLO 205 colon
  TGI: > 100 µM
HT29 colon
  TGI: > 100 µM
A549 NSCLC
  TGI: > 100 µM
UACC-257 melanoma
  TGI: > 100 µM
HCT-15 colon
  TGI: > 100 µM
K-562 leukemia
  TGI: > 100 µM
PC-3 prostate
  TGI: > 100 µM
SK-MEL-5 melanoma
  TGI: > 100 µM
HCT-116 colon
  TGI: > 100 µM

## O=C(O)C(F)(F)C(F)(F)C(F)(F)C(F)(F)C(=O)O
CAKI-1 renal
  TGI: > 100 µM
COLO 205 colon
  TGI: > 100 µM
HT29 colon
  TGI: > 100 µM
A549 NSCLC
  TGI: > 100 µM
UACC-257 melanoma
  TGI: > 100 µM
HCT-15 colon
  TGI: > 100 µM
K-562 leukemia
  TGI: > 100 µM
PC-3 prostate
  TGI: > 100 µM
SK-MEL-5 melanoma
  TGI: > 100 µM
HCT-116 colon
  TGI: > 100 µM

## NNC(=Nc1ccccc1)SCc1ccccc1
CAKI-1 renal
  TGI: > 100 µM
COLO 205 colon
  TGI: > 100 µM
HT29 colon
  TGI: > 100 µM
A549 NSCLC
  TGI: > 100 µM
UACC-257 melanoma
  TGI: > 100 µM
HCT-15 colon
  TGI: > 100 µM
K-562 leukemia
  TGI: > 100 µM
PC-3 prostate
  TGI: > 100 µM
SK-MEL-5 melanoma
  TGI: > 100 µM
HCT-116 colon
  TGI: > 100 µM

## CN1[C@@H]2CCCC[C@H]2N(C)P1(=O)C(O)/C=C/c1ccccc1 (stereo not given in full)
CAKI-1 renal
  TGI: > 100 µM
COLO 205 colon
  TGI: > 100 µM
HT29 colon
  TGI: > 100 µM
A549 NSCLC
  TGI: > 100 µM
UACC-257 melanoma
  TGI: > 100 µM
HCT-15 colon
  TGI: > 100 µM
K-562 leukemia
  TGI: > 100 µM
PC-3 prostate
  TGI: > 100 µM
SK-MEL-5 melanoma
  TGI: > 100 µM
HCT-116 colon
  TGI: > 100 µM

## CCOC(=O)CN=C1Nc2ccccc2C(=O)N2CSCC12 (stereo not given)
CAKI-1 renal
  TGI: > 100 µM
COLO 205 colon
  TGI: > 100 µM
HT29 colon
  TGI: > 100 µM
A549 NSCLC
  TGI: > 100 µM
UACC-257 melanoma
  TGI: > 100 µM
HCT-15 colon
  TGI: > 100 µM
K-562 leukemia
  TGI: > 100 µM
PC-3 prostate
  TGI: > 100 µM
SK-MEL-5 melanoma
  TGI: > 100 µM
HCT-116 colon
  TGI: > 100 µM

## COc1ccc2c(c1)C1Oc3ccccc3CC1(O)CO2 (stereo not given)
CAKI-1 renal
  TGI: > 100 µM
COLO 205 colon
  TGI: > 100 µM
HT29 colon
  TGI: > 100 µM
A549 NSCLC
  TGI: > 100 µM
UACC-257 melanoma
  TGI: > 100 µM
HCT-15 colon
  TGI: > 100 µM
K-562 leukemia
  TGI: > 100 µM
PC-3 prostate
  TGI: > 100 µM
SK-MEL-5 melanoma
  TGI: > 100 µM
HCT-116 colon
  TGI: > 100 µM

## CC(=O)OC(CC(C)C)P1(=O)N(CC(C)(C)C)[C@@H]2CCCC[C@H]2N1CC(C)(C)C (stereo not given in full)
CAKI-1 renal
  TGI: 26 µM
COLO 205 colon
  TGI: 18.2 µM
HT29 colon
  TGI: 19 µM
A549 NSCLC
  TGI: 18 µM
UACC-257 melanoma
  TGI: 21.4 µM
HCT-15 colon
  TGI: 23.4 µM
K-562 leukemia
  TGI: 23.9 µM
PC-3 prostate
  TGI: 13.6 µM
SK-MEL-5 melanoma
  TGI: 21.9 µM
HCT-116 colon
  TGI: 16.2 µM

## CC(=O)[C@H]1CC[C@H]2[C@@H]3CCC4=CC(=O)CC[C@]4(C)[C@H]3CC[C@]12C
CAKI-1 renal
  TGI: > 100 µM
COLO 205 colon
  TGI: 29.5 µM
HT29 colon
  TGI: 29.7 µM
A549 NSCLC
  TGI: 88.5 µM
UACC-257 melanoma
  TGI: 27.2 µM
HCT-15 colon
  TGI: 69.3 µM
K-562 leukemia
  TGI: 43.2 µM
PC-3 prostate
  TGI: 39.3 µM
SK-MEL-5 melanoma
  TGI: 24.8 µM
HCT-116 colon
  TGI: 28.5 µM

## N#Cc1nc(C(F)(F)F)oc1N
CAKI-1 renal
  TGI: > 100 µM
COLO 205 colon
  TGI: > 100 µM
HT29 colon
  TGI: > 100 µM
A549 NSCLC
  TGI: > 100 µM
UACC-257 melanoma
  TGI: > 100 µM
HCT-15 colon
  TGI: > 100 µM
K-562 leukemia
  TGI: > 100 µM
PC-3 prostate
  TGI: > 100 µM
SK-MEL-5 melanoma
  TGI: > 100 µM
HCT-116 colon
  TGI: > 100 µM

## O=C(O)CCC(C(=O)O)N1C(=O)c2ccccc2C1=O (stereo not given)
CAKI-1 renal
  TGI: > 100 µM
COLO 205 colon
  TGI: > 100 µM
HT29 colon
  TGI: > 100 µM
A549 NSCLC
  TGI: > 100 µM
UACC-257 melanoma
  TGI: > 100 µM
HCT-15 colon
  TGI: > 100 µM
K-562 leukemia
  TGI: > 100 µM
PC-3 prostate
  TGI: > 100 µM
SK-MEL-5 melanoma
  TGI: > 100 µM
HCT-116 colon
  TGI: > 100 µM

## O=c1c2ncn(C3CCCCO3)c2n(-c2ccccc2)c(=S)n1-c1ccccc1 (stereo not given)
CAKI-1 renal
  TGI: > 97.7 µM
COLO 205 colon
  TGI: > 100 µM
HT29 colon
  TGI: > 100 µM
A549 NSCLC
  TGI: > 100 µM
UACC-257 melanoma
  TGI: > 100 µM
HCT-15 colon
  TGI: > 100 µM
K-562 leukemia
  TGI: > 100 µM
PC-3 prostate
  TGI: > 100 µM
SK-MEL-5 melanoma
  TGI: > 100 µM
HCT-116 colon
  TGI: > 100 µM
